Reference: patent US20060270862A1, “Analogs of discodermolide and dictyostatin-1, intermediates therefor and methods of synthesis thereof” (priority 2002, published 2006)
Where two headings read alike, the source gives them in different places.

Assays:
tubulin = format: biochemical, bovine; settings: for MT stabilizing activity (%): tubulin assembly induced by test agent at 10 μM vs. 10 μM paclitaxel (100%), single determinations at 30° C.
Method: (§1) General. Tubulin without microtubule-associated proteins was prepared from fresh bovine brains[32] The normoisotopic and tritiated forms of paclitaxel and normoisotopic docetaxel were provided by the Drug Synthesis and Chemistry Branch, National Cancer Institute. (+)-Discodermolide was from Novartis Pharmaceutical Corporation. Ca^2+- and Mg^2+-free RPMI-1640 culture medium were from GIBCO/BRL-Life Technologies. Fetal bovine serum (FBS) was from Hyclone. Cell lines were obtained from American Type Culture Collection (Manassas, Va.).
Tubulin Polymerization[32] Tubulin assembly was followed in a Beckman-Coulter 7400 spectrophotometer, equipped with an electronic Peltier temperature controller, reading absorbance (turbidity) at 350 nm. Reaction mixtures (0.25 mL final volume) contained tubulin (final concentration 10 μM; 1 mg/mL), monosodium glutamate (0.8 M from a stock solution adjusted to pH 6.6 with HCl), DMSO (final volume 4% v/v), and differing concentrations of test agent where indicated. Reaction mixtures without test agent were cooled to 0° C. and added to cuvettes held at 0.25-0.5° C. in the spectrophotometer. Test agent in DMSO was then rapidly mixed in the reaction mixture. Each run contained one positive control (paclitaxel, 10 μM final concentration) and one negative control (DMSO only). Baselines were established at 0.25-2.5° C. and temperature was rapidly raised to 30° C. (in approximately 1 min) and held there for 20 min.

MDA-MB231 (breast) = assay: Cell growth inhibition (MTS), MDA-MB231; format: cell-based, human; settings: Homo sapiens, MDA-MB-231, 72 h
Method: (§2) Cell Growth Inhibition[34] Cells were plated (500-2000 cells/well depending on the cell line) in 96-well microplates, allowed to attach and grow for 48 h, then treated with vehicle (4% DMSO, a concentration that allowed doubling times of 24 h or less) or test agent (50, 10, 2, 0.4 and 0.08 μM for the new agents; 0.001, 0.005, 0.010, 0.020 and 0.100 μM for paclitaxel and discodermolide) for the given times. One plate consisted of cells from each line used for a time zero cell number determination. The other plates in a given determination contained eight wells of control cells, eight wells of medium and each agent concentration tested in quadruplicate. Cell numbers were obtained spectrophotometrically (absorbance at 490 nm minus that at 630 nm) in a Dynamax plate reader after treatment with 3-(4,5-dimethylthiazol-2-yl)-5-(3-carboxymethoxyphenyl)-2-(4-sulfophenyl)-2H-tetrazolium (MTS) using phenazine methanesulfonate as the electron acceptor. After initial screening with the above 5-fold dilutions, fifty percent growth inhibitory concentration (GI50) values were determined for each agent by repeating the screen using 2-fold dilutions (five concentrations) centered on the initial estimated GI50 concentration, again in quadruplicate.

PC3 (prostate) = assay: Cell growth inhibition (MTS), PC3; format: cell-based; settings: Homo sapiens, 72 h, read-out: GI50 PC3 (prostate)
Method: as §2

2008 (ovarian) = assay: Cell growth inhibition (MTS), 2008; format: cell-based, human; settings: Homo sapiens, 72 h
Method: as §2

[1] = tested on: paclitaxel binding site on tubulin; assay: Paclitaxel binding site inhibition assay ([3H]paclitaxel displacement from microtubules); parameters: species or system bovine; settings: 4 μM test agent, 2 μM [3H]paclitaxel, microtubules from 2 μM tubulin and 20 μM dideoxyGTP
Method: as §1
Paclitaxel binding site inhibition assay. A stock solution of [^3H]paclitaxel (26.8 μM, 16.2 Ci/mmol), obtained from the NCI, was prepared in 37% (v/v) DMSO. The test agents were prepared in 25% (v/v) DMSO-0.75 M monosodium glutamate (prepared from a 2M stock solution adjusted to pH 6.6 with HCl). The radiolabeled paclitaxel and test agents, as indicated in terms of final concentrations, were mixed in equal volumes and warmed to 37° C. A reaction mixture (50 μL) containing 0.75 M monosodium glutamate, 4.0 μM tubulin, and 40 μM ddGTP (a non-hydrolyzable analog of GTP) was prepared and incubated at 37° C. for 30 min to preform microtubules. An equivalent volume of drug mixture with [^3H]paclitaxel was added to preformed polymer and incubated for 30 min at 37° C. Bound [^3H]paclitaxel was separated from free drug by centrifugation of the reaction mixtures at 14000 rpm for 20 min at room temperature. Non-specific binding was determined by addition of a 12-fold excess of docetaxel. Radioactive counts from the supernatant (50 μL) were determined by scintillation spectrometry. Bound [^3H]paclitaxel was calculated from the following: total paclitaxel added to each reaction mixture minus the paclitaxel present in the supernatant (free drug). The % bound values were normalized to the control values with no inhibitor added.

[2] = read-out: GI50 MDA-MB231 (breast)

Row | Compound | microtubule assembly compared with paclitaxel (in words) (tubulin; FIG. 6A, equivalent assembly at lower concentrations and temperatures) | properties of the induced polymer: speed of induction, resistance to cold-induced disassembly (in words) (tubulin; FIGS. 6A, 6C, 6D, analogs at somewhat lower potencies than discodermolide) | MT stabilizing activity (%) (tubulin) | GI50 (MDA-MB231 (breast); [2]) [nM] | GI50 (MDA-MB231 (breast); read-out: GI50 MDA-MB-231 (breast)) [nM] | GI50 (PC3 (prostate)) [nM] | GI50 (2008 (ovarian); read-out: GI50 2008 (ovarian)) [nM] | GI50 (2008 (ovarian); read-out: GI50 2008 (ovary)) [nM] | Displacement of [3H]paclitaxel (%) [1] [%] | Displacement of [3H]paclitaxel (%) ([1]; N = 6, means ± SD)
1 | C=C/C=C\[C@H](C)[C@H](OC(N)=O)[C@@H](C)[C@H](O)[C@@H](C)C/C(C)=C\[C@H](C)[C@@H](O)[C@@H](C)/C=C\[C@@H](O)C[C@@H]1OC(=O)[C@H](C)[C@@H](O)[C@H]1C [discodermolide, (+)-discodermolide] | superior to paclitaxel | more resistant to cold-induced disassembly | >100 | 16 ± 3 | 16 ± 3 | 67 ± 4 | 72 ± 5 | 72 ± 5 | 64 ± 2 | 64 ± 2
2 | C=C/C=C\[C@H](C)[C@H](OC(N)=O)[C@@H](C)[C@H](O)CC/C=C\[C@H](C)[C@H](O)[C@@H](C)/C=C\CC[C@@H]1OC(=O)[C@H](C)[C@@H](O)[C@@H]1C [Compound 40, Carbamic acid, (1S,2S,3R,6Z,8S,9S,10S,11Z)-3,9-dihydroxy-14-[(2S,3S,4S,5R)-4-hydroxy-3,5-dimethyl-6-oxotetrahydropyran-2-yl]-2,8,10-trimethyl-1-[(1S,2Z)-1-methylpenta-2,4-dienyl]tetradeca-6,11-dienyl ester] | – | – | 11 | 2100 ± 1800 | – | 7500 ± 2000 | 5200 ± 1000 | – | 21 ± 1 | –
